This note sets out measurements from patent publication US20200270588A1, “GLUCOSYL TRANSFERASE POLYPEPTIDES AND METHODS OF USE” (Syngenta Participations AG, priority 2017, published 2020).

Format in all cases: biochemical
Test [1] deals with T1, Zea mays bx9 glucosyl transferase (C-terminally his tagged SEQ ID NO: 1) (Zea mays, UniProt B4G072).
T1 construct: His tag (C); made in house; host or cells: E. coli BL21 (DE3), pET24a
T1 sequence (B4G072 1-462): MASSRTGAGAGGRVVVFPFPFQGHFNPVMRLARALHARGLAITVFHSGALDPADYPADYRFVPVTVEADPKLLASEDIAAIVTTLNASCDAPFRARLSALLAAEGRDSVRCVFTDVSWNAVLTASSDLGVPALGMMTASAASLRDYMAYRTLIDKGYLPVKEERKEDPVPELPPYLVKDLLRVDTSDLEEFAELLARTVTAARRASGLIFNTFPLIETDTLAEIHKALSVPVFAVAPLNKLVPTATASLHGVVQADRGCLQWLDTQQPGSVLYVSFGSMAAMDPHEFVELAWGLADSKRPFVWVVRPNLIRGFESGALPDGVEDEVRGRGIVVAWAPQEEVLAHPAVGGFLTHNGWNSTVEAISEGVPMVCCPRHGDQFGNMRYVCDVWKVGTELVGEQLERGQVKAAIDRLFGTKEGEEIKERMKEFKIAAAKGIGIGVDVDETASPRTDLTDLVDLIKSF
The experiment in a line: UDP-Glo glucosyl transferase assay, purified enzyme. Conditions: for Activity: herbicide mM: V 0.300, VI 0.250, VII 0.210, IV, VIII, XI, XXI, XX, XVIII, XVI, XV, XIV 0.200, others 1.000. The method, then:
(§1) Glucosyl transferase activity is assayed via measurement of acceptor substrate-dependent production of UDP from ultrapure UDP-glucose using the Promega UDP-Glo™ method and according to the manufacturer's instructions. Assays are run in 96 well microtiter plates.
(§2) Enzyme, typically at a stock concentration of ˜2 mg/ml is diluted to an appropriate concentration in 50 mM K^+ Hepes buffer at pH7.5 containing 0.5 mg/mL bovine serum albumin (BSA) and 5 ul aliquots of this diluted enzyme added to each well of a Perkin Elmer white ½ area 96 well plate. […] Assays are run for an appropriate time (usually 10 to 60 min) so that the amount of UDP formed lies within the most nearly linear part of the UDP standard curve and are stopped with the addition and mixing of 25 ul UDP-Glo™ detection reagent (prepared as described below). Plates are then incubated at room temperature for 60 minutes and then read in a luminescence plate reader (Perkin Elmer Envision 2130 Multilabel Reader). A UDP standard curve is run alongside each set of assays and reagent blank control assays run with DMSO in place of test herbicide. Typically, 300 pmol of UDP corresponds to a Relative Luminescence Unit (RLU) reading of about 1.5E7 and the response curve between 0 and 600 pmol is fitted to a polynomial function (see for example FIG. 2).
(§3) The UDP-Glo™ reagents are made up and used according to the manufacturer's instructions. Thus, Nucleotide Detection Buffer and ATP are combined to make nucleotide detection reagent (NDR) dispensed into aliquots and frozen to be freshly thawed before use.
(§4) Km and kcat values in respect of UDP-glucose are derived by carrying out experiments to measure initial rates over a suitable range of concentrations of UDP glucose out at a fixed near saturating concentration of acceptor substrate. Best fit values of kcat, Km and kcat/Km are obtained by direct fitting of the data to the Michaelis-Menten equation using Graphpad Prism™ software.

Test [2] deals with T2, SEQ ID NO 17, zmBX9 S117V, M279F, A334K mutant (Zea mays, UniProt B4G072, A334K/M279F/S117V).
T2 construct: polypeptides were the C-terminally his-tagged; His tag (C); made in house
The description is as above. The note with it: herbicide mM: V 0.300, VI 0.250, VII 0.210; IV, VIII, XI, XXI, XX, XVIII, XVI, XV, XIV 0.200; others 1.000. Here is the method:
as §1, §2, §3, §4
(§5) Variants of C-terminally his tagged SEQ ID No:1 (w/t bx9 from Zea mays), exemplified as SEQ ID 16-30, were cloned, purified and assayed as described in Example 1. FIG. 4 depicts the data from some experiments to determine the kinetic parameters of some of these variants in respect of herbicide VI and table 12 summarizes the estimates of kinetic parameters obtained from further such experiments in respect of a range of herbicides.
(§6) Table 13 summarizes the results obtained from assays, run as described in Example 1, using a variety of alcohol and aminal PSII herbicides as substrates of the Zea mays bx9 w/t (i.e. C-terminally his tagged SEQ ID no 1) and various mutants of the same, selected from SEQ ID NO: 16-30). All of these proteins were C-terminally his-tagged, expressed and purified as described in Example 1. Assays were run and analyzed as described in example 1. It is seen that various of the mutations herein and combinations thereof led to significant improvements (over the w/t bx9 protein) in catalytic activity versus various of the herbicides and that these improvements are often of sufficient magnitude to be useful for conferring improved herbicide tolerance upon crop. This is especially the case given that even the unmutated w/t bx9 enzyme which has only modest glucosyl transferase activity (for example against compounds V and VI) was nevertheless adequately active to confer significant herbicide tolerance in the glass house (as shown in example 9) even without mutational improvement. It is also seen that particular mutations can lead to very much improved activity in respect of some chemistries but not to others but that, overall, there is at least one variant within the scope of the current invention that provides significant and useful improvement in tolerance to each of the chemistries tested.

The target in test [3] is T3, SEQ ID NO 21, mutant of Zea mays bx9 glucosyl transferase (Zea mays, UniProt B4G072, A334K/F21Y/L194V/M279F/S117V).
T3 construct: His tag (C); made in house
The test is described as above. Conditions: lower block, concentration printed only in upper block: V 0.300, VII 0.210; IV, VIII, XI, XXI, XX, XVIII, XVI, XV, XIV 0.200; others 1.000 mM. Here is the method: as §1, §2, §3, §4, §5, §6

Test [4] deals with T4, SEQ ID NO 22, mutant of Zea mays bx9 glucosyl transferase (Zea mays, UniProt B4G072, A334K/F21Y/M279F/S117V/T220P).
T4 construct: His tag (C); made in house
The description is as above. The note with it: lower block, concentration printed only in upper block: V 0.300, VII 0.210; IV, VIII, XI, XXI, XX, XVIII, XVI, XV, XIV 0.200; others 1.000 mM. The method, then: as §1, §2, §3, §4, §5, §6

Test [5] concerns the target T5, SEQ ID NO 18, mutant of Zea mays bx9 glucosyl transferase (Zea mays, UniProt B4G072, A281K/A334K/F21Y/M279F/S117V).
T5 construct: His tag (C); made in house
The test is described as above. The note with it: herbicide mM: V 0.300, VI 0.250, VII 0.210; IV, VIII, XI, XXI, XX, XVIII, XVI, XV, XIV 0.200; others 1.000. The method, then: as §1, §2
(§7) The UDP-Glo™ reagents are made up and used according to the manufacturer's instructions. Thus, Nucleotide Detection Buffer and ATP are combined to make nucleotide detection reagent (NDR) dispensed into aliquots and frozen to be freshly thawed before use. […]
as §6

The target of test [6] is T6, SEQ ID NO 19, mutant of Zea mays bx9 glucosyl transferase (Zea mays, UniProt B4G072, A281K/A334K/L194V/M279F/S117V).
T6 construct: His tag (C); made in house
Described as above. The note with it: herbicide mM: V 0.300, VI 0.250, VII 0.210; IV, VIII, XI, XXI, XX, XVIII, XVI, XV, XIV 0.200; others 1.000. Here is the method: as §1, §2, §7, §6

Test [7] addresses T7, SEQ ID NO 23, mutant of Zea mays bx9 glucosyl transferase (Zea mays, UniProt B4G072, A334K/F21Y/L194C/M279F/S117V).
T7 construct: His tag (C); made in house
Described as above. The note with it: lower block, concentration printed only in upper block: V 0.300, VII 0.210; IV, VIII, XI, XXI, XX, XVIII, XVI, XV, XIV 0.200; others 1.000 mM. The method, then: as §1, §2, §7, §6

For test [8], the target named is T8, SEQ ID NO 20, mutant of Zea mays bx9 glucosyl transferase (Zea mays, UniProt B4G072, A281K/A334K/F21Y/L194V/M279F/S117V).
T8 construct: His tag (C); made in house
Conditions: lower block, concentration printed only in upper block: V 0.300, VII 0.210; IV, VIII, XI, XXI, XX, XVIII, XVI, XV, XIV 0.200; others 1.000 mM. Here is the method:
as §1
as §2, with “herbicide.” for “herbicide. Typically, 300 pmol of UDP corresponds to a Relative Luminescence Unit (RLU) reading of about 1.5E7 and the response curve between 0 and 600 pmol is fitted to a polynomial function (see for example FIG. 2).”
as §3, §4
All of these proteins were C-terminally his-tagged, expressed and purified as described in Example 1. Assays were run and analyzed as described in example 1.

Regarding `CN1CC(O)N(c2nnc(C(C)(C)C)s2)C1=O` (stereo not drawn) [IX], in test [1] (0.5 mM UDP-glucose, 25 C, pH 7.5, DMSO reagent blank as control), the kcat worked out at 0.036 s⁻¹. The Activity is 0.017 pmol/sec/pmol enzyme in test [1]; 0.035 pmol/sec/pmol enzyme in test [2]; 0.012 pmol/sec/pmol enzyme in test [3]; 0.071 pmol/sec/pmol enzyme in test [4]; 0.115 pmol/sec/pmol enzyme in test [5]; 0.070 pmol/sec/pmol enzyme in test [6]. Moreover, the Activity in test [7] came out at 0.013 pmol/sec/pmol enzyme; in test [8] it was 0.068 pmol/sec/pmol enzyme.

For the molecule `CN1CC(O)N(c2cc(C(F)(F)F)ncn2)C1=O` (stereo not drawn) [XXV], the Activity turned out to be 0.000 pmol/sec/pmol enzyme in test [1]; 0.106 pmol/sec/pmol enzyme in test [2]; 0.170 pmol/sec/pmol enzyme in test [3]; 0.458 pmol/sec/pmol enzyme in test [4]; 0.553 pmol/sec/pmol enzyme in test [5]; 0.581 pmol/sec/pmol enzyme in test [6]. Besides, the Activity in test [7] stood at 0.449 pmol/sec/pmol enzyme; in test [8], 0.758 pmol/sec/pmol enzyme.

`C[C@@H]1C(O)N(c2noc(C(C)(C)C)c2C#N)C(=O)[C@@H]1C` (stereo partly drawn) [XIII]: the Activity is on record as −0.001 pmol/sec/pmol enzyme in test [1]; 0.020 pmol/sec/pmol enzyme in test [2]; 0.040 pmol/sec/pmol enzyme in test [3]; 0.073 pmol/sec/pmol enzyme in test [4]; 0.051 pmol/sec/pmol enzyme in test [5]; 0.095 pmol/sec/pmol enzyme in test [6]. In addition, the Activity in test [7] was determined as 0.034 pmol/sec/pmol enzyme; in test [8] it was 0.143 pmol/sec/pmol enzyme.

As for `CN1CC(O)N(c2cc(C(C)(C)C)c(Cl)nn2)C1=O` (stereo not drawn) [III], the Activity is given as 0.001 pmol/sec/pmol enzyme in test [1]; 0.032 pmol/sec/pmol enzyme in test [2]; 0.020 pmol/sec/pmol enzyme in test [3]; 0.144 pmol/sec/pmol enzyme in test [4]; 0.170 pmol/sec/pmol enzyme in test [5]; 0.097 pmol/sec/pmol enzyme in test [6]. In addition, the results for the Activity in test [7] and in test [8] were 0.066 pmol/sec/pmol enzyme and 0.144 pmol/sec/pmol enzyme, respectively.

Consider `C[C@@H]1C(=O)N(c2noc(C(C)(C)C)c2C#N)C(O)[C@H]1C` (stereo partly drawn) [XXVI], for which the Activity was −0.001 pmol/sec/pmol enzyme in test [1]; 0.020 pmol/sec/pmol enzyme in test [2]; 0.040 pmol/sec/pmol enzyme in test [3]; 0.073 pmol/sec/pmol enzyme in test [4]; 0.051 pmol/sec/pmol enzyme in test [5]; 0.095 pmol/sec/pmol enzyme in test [6]. Also, the Activity in test [7] was found to be 0.034 pmol/sec/pmol enzyme; in test [8] it was 0.143 pmol/sec/pmol enzyme.

Consider `CC1C(=O)N(c2cc(C(F)(F)F)n(C)n2)C(O)[C@@H]1C` (stereo partly drawn) [XVII], for which the Activity in test [1] is −0.001 pmol/sec/pmol enzyme; in test [2], 0.083 pmol/sec/pmol enzyme; in test [3], 0.195 pmol/sec/pmol enzyme; in test [4], 0.134 pmol/sec/pmol enzyme; in test [5], 0.237 pmol/sec/pmol enzyme; in test [6], 0.331 pmol/sec/pmol enzyme. Moreover, the results for the Activity in test [7] and in test [8] were 0.096 pmol/sec/pmol enzyme and 0.402 pmol/sec/pmol enzyme, respectively.

On to `CC1C(O)N(c2cc(C(F)(F)F)c(Cl)cn2)C(=O)N1C` (stereo not drawn) [XIX], for which the Activity is reported as −0.001 pmol/sec/pmol enzyme in test [1]; 0.157 pmol/sec/pmol enzyme in test [2]; 0.234 pmol/sec/pmol enzyme in test [3]; 0.315 pmol/sec/pmol enzyme in test [4]; 0.467 pmol/sec/pmol enzyme in test [5]; 0.363 pmol/sec/pmol enzyme in test [6]. The Activity in test [7] is listed as 0.207 pmol/sec/pmol enzyme; in test [8] it was 0.414 pmol/sec/pmol enzyme.
